Source: patent US4140707A, “Malonato platinum anti-tumor compounds” (priority 1977, dated 1979)

Columns and labels:
Sarcoma 180 [1] = assay: Large Sarcoma 180 regressions (Table II), injection day 8, observed approximately 60 days; assay type: in vivo, female Swiss white mice; conditions: single i.p. day 8, H2O solution
Experimental: In addition to the day 1 injections described above, in a number of cases injections were delayed until day 8 of tumor growth. In these cases the tumor was usually at least larger than 1/2 gm, as estimated by palpation. The animals were then injected and observed for a period of approximately 60 days. Activity was measured by the number of animals whose tumors had regressed to the vanishing point, while still allowing the animal to survive for this time period. Such test results are described in TABLE II below.

[2] = Hydrolysis by U.V./vis spectral and conductivity studies; assay type: physicochemical
Source text: *U.V./via spectral and conductivity studies have shown that hydrolysis is negligible.

[3] = test system: Walker 256 Carcinosarcoma; assay: Confirmatory antitumor activity, Walker 256 Carcinosarcoma (Table III); assay type: in vivo, Rat; conditions: single injection day 1 in oil, i.p.
Experimental: Confirmatory tests of antitumor activity against the Walker 256 Circinosarcoma in rats, and the ADJ/PC6A tumor in mice were conducted. The initial test results are shown in Table III and confirm the potent action of the compounds of the invention against these other tumor systems.

Sarcoma 180 [4] = assay: Antitumor activity, solid Sarcoma 180 (Table I), T/C tumor weight ratio, sacrifice day 10; assay type: in vivo, female Swiss white mice
Experimental: The compounds of the invention were tested for anti-tumor activity using our standard screening tumor, solid sarcoma 180 tumer in female Swiss white mice, following standard protocols for this testing as set by the National Cancer Institute. (Cancer Chemotherapy Rep., 25(1962)).
For these tests an S 180 tumor taken from a sacrificed mouse was disected free of superfluous tissue and cut under sterile conditions into approximately 10 milligram size pieces. These tissue pieces were then implanted by trocar in the left axillary region, subcutaneously, in new mice. The mice were, on the average, approximately four weeks old and weighed 18-20 grams. Taking day 0 as the day of implant, the animals were sacrificed on day 10. The tumors were excised and weighed and the ratio of the weights of the tumors in mice in the treated animals to the control set of animals was obtained. This ratio, multiplied by 100, is given as the T/C ratio in Table I.
For the first set of tests the coordination compound was freshly dissolved in sterile distilled water and injected intraperitoneally on day 1 into each of the test mice. The volume of the injection was usually 1/2 ml. In some cases, in order to get an active dose into the animal where the chemical was not soluble in this amount of solvent, a fine dispersion was prepared of the dose needed for the test. Thus, some of our test results were obtained on animals where a slurry of the compound was injected. These are so noted in Table I below. In addition, for some of the compounds, there was injected about 1 ml of solution, either in one single injection, or in 2 injections given a few hours apart of 1/2 ml each. These injections were initially given in 4 different dose levels for each new compound with 6 mice in each dose level. The tests covered a dose range from a low ineffective dose, to an upper dose level which produced some deaths within the time period of the experiment.

[5] = 4 mg/kg, i.p. daily for days 1-10, solution in H2O
[6] = 5 mg/kg, i.p. daily for days 1-10, solution in H2O
[7] = 6 mg/kg, i.p. daily for days 1-10, solution in H2O
[8] = 7 mg/kg, i.p. daily for days 1-10, solution in H2O
[9] = 10 mg/kg, single i.p. day 1, slurry in H2O
[10] = 15 mg/kg, single i.p. day 1, slurry in H2O
[11] = 20 mg/kg, single i.p. day 1, slurry in H2O
[12] = 25 mg/kg, single i.p. day 1, slurry in H2O
[13] = 30 mg/kg, single i.p. day 1, slurry in H2O
[14] = 50 mg/kg, single i.p. day 1, slurry in H2O

O=C(O)CC(=O)O.[NH2-].[NH2-].[Pt+2] [Malonatodiammineplatinum(II)]
Deaths (Sarcoma 180 [1]; 14 mg/kg): 4
Total Number of Regressions (Sarcoma 180 [1]; 14 mg/kg): 2
Deaths (Sarcoma 180 [1]; 16 mg/kg): 3
Total Number of Regressions (Sarcoma 180 [1]; 16 mg/kg): 3
Deaths (Sarcoma 180 [1]; 18 mg/kg): 2
Total Number of Regressions (Sarcoma 180 [1]; 18 mg/kg): 4
Deaths (Sarcoma 180 [1]; 20 mg/kg): 1
Total Number of Regressions (Sarcoma 180 [1]; 20 mg/kg): 5
hydrolysis [2]: negligible
% Inhibition ([3]; 10 mg/kg): 100%
Deaths ([3]; 10 mg/kg): 0
% Inhibition ([3]; 20 mg/kg): 100%
Deaths ([3]; 20 mg/kg): 0
% Inhibition ([3]; 40 mg/kg): 100%
Deaths ([3]; 40 mg/kg): 0
Deaths ([3]; 80 mg/kg): 0
No. of Deaths (Sarcoma 180 [4]; [5]): 0
T/C (Sarcoma 180 [4]; [5]): 54
No. of Deaths (Sarcoma 180 [4]; [6]): 0
T/C (Sarcoma 180 [4]; [6]): 56
No. of Deaths (Sarcoma 180 [4]; [7]): 0
T/C (Sarcoma 180 [4]; [7]): 23
No. of Deaths (Sarcoma 180 [4]; [8]): 0
T/C (Sarcoma 180 [4]; [8]): 12
No. of Deaths (Sarcoma 180 [4]; [9]): 0
T/C (Sarcoma 180 [4]; [9]): 76
No. of Deaths (Sarcoma 180 [4]; [10]): 0
T/C (Sarcoma 180 [4]; [10]): 38
No. of Deaths (Sarcoma 180 [4]; [11]): 0
T/C (Sarcoma 180 [4]; [11]): 64
No. of Deaths (Sarcoma 180 [4]; [12]): 0
T/C (Sarcoma 180 [4]; [12]): 31
No. of Deaths (Sarcoma 180 [4]; [13]): 1/6
T/C (Sarcoma 180 [4]; [13]): 7
No. of Deaths (Sarcoma 180 [4]; 40 mg/kg, single i.p. day 1, slurry in H2O): 6/6
No. of Deaths (Sarcoma 180 [4]; [14]): 5/6
T/C (Sarcoma 180 [4]; [14]): 1
No. of Deaths (Sarcoma 180 [4]; 60 mg/kg, single i.p. day 1, slurry in H2O): 6/6
